The source of these data is US10799478B2, “Treatment of androgen deprivation therapy associated symptoms” (priority 2014, dated 2020).

In experiment [1] the test system is LnCAP human prostate cancer cells. Put plainly: LnCAP Gene Expression. The conditions noted are these: Homo sapiens, LNCaP. In kind it is cell-based.
The next experiment deals with ORX Wistar male rats. The experiment is described as follows: In Vivo Study to Explore Direct Antagonist Effect of Example 1 in the Presence of TE. On the set-up: species or system rat. How it is done:
Route of administration for all groups except TE is oral. TE is administered subcutaneously. At the end of 8 weeks of daily dosing, rats are euthanized, weighed & tissue harvested. Levator ani, prostates, and seminal vesicles are collected from each animal. Results are plotted as means±SE.

For a further experiment, the system named is Orx rats. The experiment is described as follows: Orchidectomized Rat Assay. The class given is in vivo. As to conditions: PTH 10 ug/Kg/d sc, once daily 2 months.
[2] abbreviates: ORX + TE 1 mg/kg/d (control group of Dunnett's comparison).
Where [3] appears, read: ORX + TE 1 mg/kg/d sc alone, 8 weeks.

Read-outs that look alike come from different tables or passages of the source.

Regarding `C[C@]1(O)CC[C@H]2[C@@H]3CCC4=CC(=O)CCC4=C3C=C[C@@]21C` [Example R1881], the EC50 (commonly the concentration needed to bring the measured effect to its halfway point) was determined as 0.035 nM in experiment [1] (AR gene, read-out: LnCAP Gene Expression EC50 (nM) AR); 0.37 nM in experiment [1] (CLUSTERIN gene, read-out: LnCAP Gene Expression EC50 (nM) CLUSTERIN); 0.034 nM in experiment [1] (PSA gene, read-out: LnCAP Gene Expression EC50 (nM) PSA).
Take `CCCCCCC(=O)O[C@H]1CC[C@H]2[C@@H]3CCC4=CC(=O)CC[C@]4(C)[C@H]3CC[C@]12C` [TE, testosterone enanthate, reference compound]: in the experiment with ORX Wistar male rats (setting [2]), the “Prostate Weights, Abs(Dif) − LSD” value was −0.15 and the “Seminal Vesicle Wet Weights, Abs(Dif) − LSD” value was −0.52. In addition, in the experiment on ORX Wistar male rats (setting [3]), the “Prostate Weight, % Sham” value is on record as 45.5 % Sham and the “SV Weight, % Sham” value is reported as 58.5 % Sham.
For “PTH: PTH (1-38) (Zeneca (Cambridge Research Biochemicals)), given sc as an injection (SVSEIQLMHNLGKHLNSMERVEWLRKKLQDVHNFVALG; Parathyroid hormone; UniProt P01270 32-69, looked up, fragment) [reference compound]”, the “SV Weight, % Sham” value in the experiment with Orx rats is on record as 5.6 % Sham.
